Measurements taken from patent US8637493B2, “Methods for treating glioblastoma” (University of Massachusetts, priority 2009, dated 2014).

How the values were obtained:
Hes1 = assay: RT-PCR / qRT-PCR of Notch target Hes1 mRNA in neurosphere cultures after DAPT; assay type: cell-based, human; conditions: for decrease of Hes1 mRNA level: 48 hours after treatment, RT-PCR; for Hes1 expression (qRT-PCR): 1 μM DAPT, 48 hours
Protocol: TMZ concentrations for each culture were selected based on previous experiments (Mihaliak et al., Cancer Letts. 296, 168-177 (2010)) DAPT and LY concentrations were chosen for each culture based on the decrease in Hes1 and Hey1 expression. RNA was isolated from the cultures 48 hours after DAPT treatment, and Hes1 and Hey1 cDNA expression levels were analyzed by PCR or qPCR.
RT-PCR and RT-qPCR were performed as follows. Neurosphere cultures were pelleted and tumor tissues from subcutaneous xenografts were broken into a powder using a BioPulverizer (Biospec Products, Inc., Bartlesville, Okla.). RNA was isolated from neurosphere cultures and frozen tumor samples using TRIzol Reagent (Invitrogen, Carlsbad, Calif.), following the manufacturer's protocol. RNA was treated with DNase I, Amplification Grade (Invitrogen, Carlsbad, Calif.). cDNA was made using the SuperScript II Reverse Transcription (RT) Kit with Oligo(dT)12-18 primers (Invitrogen, Carlsbad, Calif.), followed by a 20 minute incubation at 37° C. with RNaseH. PCR was carried out using Taq DNA Polymerase, following the manufacturer's protocol (Invitrogen, Carlsbad, Calif.). Real time qPCR was carried out using QuantiTect SYBR Green (QIAGEN, Valencia, Calif.). Hes1 and β-Actin primers were developed using Primer3 (Rozen and Skaletsky, Methods Mol Biol 2000; 132: 365-86). Hes1 forward primer: 5″ […] 3″ (SEQ ID NO:1) and reverse primer: 5″ […] 3″ (SEQ ID NO:2). β-Actin (RT-PCR) forward primer: 5″[…] 3″ (SEQ ID NO:3) and reverse primer: 5″ […] 3″ (SEQ ID NO:4). β-Actin (qRT-PCR) forward primer: 5″[…] 3″ (SEQ ID NO:5) and reverse primer: 5″ […] (SEQ ID NO:6). Primers for Hey1 (Osipo et al., Oncogene 2008; 27: 5019-32), Notch1 (Lefort et al., Genes Dev 2007; 21: 562-77), Notch2 (O'Neill et al., Am J Pathol 2007; 171: 1023-36), Notch3 (Buchler et al., Ann Surg 2005; 242: 791-800, discussion −1) and Notch4 (Buchler et al., Ann Surg 2005; 242: 791-800, discussion −1) were previously published, RT-PCR products were analyzed on 2% agarose gels. tantification of band intensity for DAPT treated lines was determined using ImageJ (Rasband W S. ImageJ, U.S. National Institutes of Health, Bethesda, Md., USA. 1997-2004). cDNA levels for qRT-PCR products were calculated using the PFAFFL method (Pfaffl, Nucleic Acids Res 2001; 29: e45).

[1] = Toxicity by body weight during drug administration
Protocol: Tolerance of the drug treatments was determined by measuring the weight of the mice during the period of drug administration.
During drug administration, toxicity was determined by weight loss.

GS7-2-NICD = assay: Neurosphere recovery assay, GS7-2-NICD; assay type: cell-based, human; conditions: constitutive NICD
Protocol: Neurosphere cultures were dissociated to single cell suspensions by pH dissociation followed by filtration through 40 μm screens. For the neurosphere assay, 3,000 cells/ml of defined medium were seeded in 6-well plates. Immediately after plating, cells were treated with DMSO (Research Organics, Cleveland, Ohio) carrier control, TMZ-only, DAPT-only, or TMZ+DAPT. Additional DAPT was added on days 2 and 4. Neurospheres consisting of 10 or more cells were counted under a light microscope on day 7 for the converted cell lines. Primary lines have a slightly longer doubling time and were counted on day 10. After counting the neurospheres from the initial treatment, 2 ml of fresh defined medium was added to each well. DAPT was also added once more to the DAPT-only and TMZ+DAPT samples, and the cells were incubated for an additional 7 or 10 days. Neurospheres from the recovery period were counted on day 14 or day 20. To analyze secondary neurosphere formation, cells were collected, pelleted and dissociated to a single cell suspension by the pH method. Cells from each well were re-seeded into 6-well plates with 2 ml of defined medium. The number of secondary neurospheres formed by converted cell lines and primary cultures were counted on day 21 or day 30, respectively. All recovery assays were repeated with a minimum of 6 replicate sets of time points. […]

GS8-26 = assay: Neurosphere formation / recovery / secondary neurosphere assay, GS8-26; assay type: cell-based, human
Protocol: The effect of chemotherapy on neurosphere formation was assayed in glioma neurosphere cultures. Cultures are treated with a single dose of the agent, e.g., TMZ and multiple doses of a GSI, e.g., DAPT to inhibit the Notch pathway. After the Treatment phase, the number of initial spheres (counted about 7 days after TMZ treatment) represents the number of proliferating CSC/progenitors (FIG. 1 for schematic). Recovery (counted 14 days after TMZ treatment) includes enlargement of the initial spheres and new spheres formed when CSC/progenitor cells quiescent as a result of chemotherapy resume cell proliferation. […] The cells used included U87NS, a neurosphere culture converted to neurosphere growth in defined medium from U87MG (an old Swedish line that is grown in conventional serum conditions); GS7-2, GS8-26 and GS6-22 primary neurosphere cultures that were obtained from grade IV GBM patient tumor samples and AS5-15, which was obtained from a grade III anaplastic astrocytoma.
(§1) To determine the effects of TMZ plus DAPT neurospheres, cells were plated as previously described (Mihaliak et al., Cancer Letts. 296, 168-177 (2010)). Immediately after plating, cells were treated with DMSO, DAPT-only, LY411,575 (LY)-only TMZ-only, TMZ+DAPT or TMZ+LY. The initial neurospheres were counted on day 7 for the converted cell lines and on day 10 for the slower growing primary lines. Neurosphere recovery was measured on day 14 or 20. The neurospheres were dissociated, re-plated and secondary neurosphere formation was measured on day 21 or 30.
Neurosphere cultures were dissociated to single cell suspensions by pH dissociation followed by filtration through 40 μm screens. […] Neurospheres consisting of 10 or more cells were counted under a light microscope on day 7 for the converted cell lines. Primary lines have a slightly longer doubling time and were counted on day 10. […] Neurospheres from the recovery period were counted on day 14 or day 20. […] The number of secondary neurospheres formed by converted cell lines and primary cultures were counted on day 21 or day 30, respectively. […]

[2] = tested on: U87NS, U373NS, GS7-2 and GS8-26; assay: Neurosphere recovery assay, initial neurospheres, range over all cultures; assay type: cell-based, human; conditions: day 7 or 10
Protocol: as §1
Neurosphere cultures were dissociated to single cell suspensions by pH dissociation followed by filtration through 40 μm screens. For the neurosphere assay, 3,000 cells/ml of defined medium were seeded in 6-well plates. Immediately after plating, cells were treated with DMSO (Research Organics, Cleveland, Ohio) carrier control, TMZ-only, DAPT-only, or TMZ+DAPT. Additional DAPT was added on days 2 and 4. Neurospheres consisting of 10 or more cells were counted under a light microscope on day 7 for the converted cell lines. Primary lines have a slightly longer doubling time and were counted on day 10. […] Neurospheres from the recovery period were counted on day 14 or day 20. […] The number of secondary neurospheres formed by converted cell lines and primary cultures were counted on day 21 or day 30, respectively. […]

Row | SMILES | decrease of Hes1 mRNA level (Hes1; U87NS, DAPT 1 μM) | Hes1 expression (qRT-PCR) (Hes1; U87NS-NICD) | Hes1 expression (qRT-PCR) (Hes1; U87NS-pMIG) | decrease of Hes1 mRNA level (Hes1; U373NS, DAPT 5 μM) | body weight, initially after TMZ injections [1] | body weight, remainder of treatment / final weight [1] | recovery: increase in neurospheres (GS7-2-NICD) | recovery: increase in the number of neurospheres (GS8-26; day 20 relative to day 10, DAPT 5 μM) | secondary neurosphere formation, TMZ-only treated culture relative to TMZ+DAPT treated culture (GS8-26; day 30, P<0.001) | average number of cells per neurosphere capable of self-renewal (GS8-26; secondary neurospheres divided by recovery neurospheres) | decrease of initial neurosphere formation [2]
1 | C[C@H](NC(=O)Cc1cc(F)cc(F)c1)C(=O)N[C@H](C(=O)OC(C)(C)C)c1ccccc1 [DAPT, N-[N-(3,5-difluorophenacetyl)-L-alanyl]-(S)-phenylglycine t-butyl ester] | 72% | minimal decrease | decreased | 76% | – | – | – | – | – | – | –
2 | Cn1nnc2c(C(N)=O)ncn2c1=O [TMZ, temozolomide] | – | – | – | – | slight weight loss | no significant weight difference | 2.6 fold | 1.6 fold | 25 fold | 31 cells per neurosphere | 80-98%
